Results on 28 molecules are retold here after patent publication US20250339461A1 (priority 2024, published 2025).

“Also recorded” adds a separate entry of the source.

In series [1] the test system is migraine headache. To be noted: human, in vivo.
The conditions of series [2]: human, in vivo.
The subject of series [3] is nausea. To be noted: human, in vivo.
The subject of series [4] is neuropathic facial pain. Also on record: species or system human. To be noted: in vivo.

In the case of `C[C@@H]1[C@H](c2ccccc2)C[C@H](NC(=O)c2cnc3c(c2)C[C@@]2(C3)C(=O)Nc3ncccc32)C(=O)N1CC(F)(F)F` [Ubrelvy], the benefit for rescue entry in series [1] is on record as “not helpful”. As for `CN(C)CCC=C1c2ccccc2CCc2ccccc21` [amitriptyline], the “benefit as prophylactic agent for migraines” value (“benefit as prophylactic agent” for short) in series [1] is recorded as “without benefit”.

With `NCC(CC(=O)O)c1ccc(Cl)cc1` (centres unmarked) [baclofen], in series [1], the “benefit as prophylactic agent” value is “without benefit”; the “benefit for migraine prophylaxis, history at first visit” value (“benefit … at first visit” for short) is given as “no benefit”; the “benefit from previous treatment” value was “no benefit”. `CCCCN1CCCCC1C(=O)Nc1c(C)cccc1C` (centres unmarked) [bupivacaine]: the “pain after local anesthetic injection along superior nuchal line” value in series [1] is given as “substantially improved for two days”. Turning to `Oc1ccc2c(c1)[C@@]13CCCC[C@@]1(O)[C@@H](C2)N(CC1CCC1)CC3` [butorphanol], the benefit for rescue entry in series [1] is “without benefit”. Regarding `NC(=O)N1c2ccccc2C=Cc2ccccc21` [carbamazepine], the “benefit as prophylactic agent” value in series [1] was “without benefit”. `COC1=C(OC)C(=O)C(C/C=C(\C)CC/C=C(\C)CC/C=C(\C)CC/C=C(\C)CC/C=C(\C)CC/C=C(\C)CC/C=C(\C)CC/C=C(\C)CC/C=C(\C)CCC=C(C)C)=C(C)C1=O` [coenzyme Q10]: in series [1], the “benefit as prophylactic agent” value is on record as “without benefit”, the benefit for prophylaxis entry was “no benefit” and the “effect on frequency of headaches after 4-6 weeks” value is “did not affect the frequency”. Regarding `O=C(O)Cc1ccccc1Nc1c(Cl)cccc1Cl` [diclofenac], in series [1], the benefit for rescue entry is reported as “without benefit”. On the same count and under the same terms, the value for `CN1CCC[C@@H]1Cc1c[nH]c2ccc(CCS(=O)(=O)c3ccccc3)cc12` [eletriptan] was “consistently effective”.

In the case of `NCC1(CC(=O)O)CCCCC1` [gabapentin], in series [1], the “benefit as prophylactic agent” value is “without benefit”; the “benefit … at first visit” value was “no benefit”; the “benefit from previous treatment” value was “no benefit”. Take `CC(C)Cc1ccc(C(C)C(=O)O)cc1` (centres unmarked) [ibuprofen]: the “benefit from previous treatment” value in series [1] is “no benefit”. Regarding `CCCCc1nc(Cl)c(CO)n1Cc1ccc(-c2ccccc2-c2nn[nH]n2)cc1` [losartan], the “benefit … at first visit” value in series [1] is on record as “no benefit”. For the molecule `CCN(CC)CCNC(=O)c1cc(Cl)c(N)cc1OC` [metoclopramide], the tolerability entry in series [2] was “intolerant”. Turning to `Cc1nccn1CC1CCc2c(c3ccccc3n2C)C1=O` (centres unmarked) [ondansetron], in series [3], the effect on nausea entry is on record as “at times helpful for nausea”. Regarding `C[C@]12C=CC(=O)C=C1CC[C@@H]1[C@@H]2C(=O)C[C@@]2(C)[C@H]1CC[C@]2(O)C(=O)CO` [prednisone], in series [1], the “benefit as prophylactic agent” value is on record as “without benefit”. On to `CC(C)C[C@H](CN)CC(=O)O` [pregabalin], for which the “effect on comorbid neuropathic facial pain” value in series [4] is “treated effectively”. The “benefit as prophylactic agent” value in series [1] is “without benefit”. With `CC(C)NCC(O)COc1cccc2ccccc12` (centres unmarked) [propranolol], in series [2], the tolerability entry is “caused dizziness”. Further, in series [1], the “benefit as prophylactic agent” value is “without benefit” and the “benefit from previous treatment” value is reported as “no benefit”. As to `Cc1cc2nc3c(=O)[nH]c(=O)nc-3n(C[C@H](O)[C@H](O)[C@H](O)CO)c2cc1C` [riboflavin], the “effect on frequency of headaches after 4-6 weeks” value in series [1] was “did not affect the frequency”. In the case of `CN(C)CCc1c[nH]c2ccc(Cn3cncn3)cc12` [rizatriptan], the “adverse effect when tried for rescue” value in series [2] is “severe elevation in their blood pressure”. In series [1], the benefit for rescue entry is given as “no longer effective” and the “share of the time it worked for rescue” value was “approximately 20 % of the time”. In the case of `CNS(=O)(=O)Cc1ccc2[nH]cc(CCN(C)C)c2c1` [sumatriptan tablet, sumatriptan], in series [1], the benefit for rescue entry was “not helpful; also recorded: partially helpful; also recorded: without benefit”.

`Clc1ccc2nsnc2c1NC1=NCCN1` [tizanidine]: in series [1], the “benefit as prophylactic agent” value is on record as “without benefit” and the benefit for prophylaxis entry was “partially helpful”. With `CC1(C)O[C@@H]2[C@@H](CO[C@@]3(COS(N)(=O)=O)OC(C)(C)O[C@@H]23)O1` [topiramate], the tolerability result in series [2] is recorded as “could not tolerate the side effects”. In addition, in series [1], the “benefit as prophylactic agent” value was “without benefit”; the “benefit for migraine prophylaxis” value is on record as “helped some”; the “benefit … at first visit” value is “no benefit”; the “frequency of severe migraine headaches on treatment” value is reported as 5 to 7 days a week. `COc1cccc(C2(O)CCCCC2CN(C)C)c1` (centres unmarked) [tramadol]: the benefit for rescue entry in series [1] is listed as “partially helpful; also recorded: without benefit”. On to `CCCC(CCC)C(=O)O` [valproic acid], for which the “benefit as prophylactic agent” value in series [1] is given as “without benefit”. With `CN(C)CCc1c[nH]c2ccc(C[C@H]3COC(=O)N3)cc12` [zolmitriptan nasal spray, zolmitriptan], the benefit for rescue result in series [1] is “without benefit”. As for `NS(=O)(=O)Cc1noc2ccccc12` [zonisamide], the “benefit as prophylactic agent” value in series [1] is listed as “without benefit”.

B1: Ajovy: prophylactic agent tried for migraines (antibody, chains of the INN, looked up, V domains shown)
VH: EVQLVESGGGLVQPGGSLRLSCAASGFTFSNYWISWVRQAPGKGLEWVAEIRSESDASATHYAEAVKGRFTISRDNAKNSLYLQMNSLRAEDTAVYYCLAYFDYGLAIQNYWGQGTLVTVSS
VL: EIVLTQSPATLSLSPGERATLSCKASKRVTTYVSWYQQKPGQAPRLLIYGASNRYLGIPARFSGSGSGTDFTLTISSLEPEDFAVYYCSQSYNYPYTFGQGTKLEIK
Turning to B1, the “benefit as prophylactic agent” value in series [1] is “without benefit”.

B2: Emgality: prophylactic agent prescribed for chronic migraine (antibody, chains of the INN, looked up, V domains shown)
VH: QVQLVQSGAEVKKPGSSVKVSCKASGYTFGNYWMQWVRQAPGQGLEWMGAIYEGTGKTVYIQKFADRVTITADKSTSTAYMELSSLRSEDTAVYYCARLSDYVSGFGYWGQGTTVTVSS
VL: DIQMTQSPSSLSASVGDRVTITCRASKDISKYLNWYQQKPGKAPKLLIYYTSGYHSGVPSRFSGSGSGTDFTLTISSLQPEDFATYYCQQGDALPPTFGGGTKVEIK
For B2, the side effects result in series [2] is on record as “caused unwanted side effects”. Also, in series [1], the “benefit as prophylactic agent” value is “without benefit”; the “benefit for migraine prophylaxis” value is “significantly improved”; the “benefit … at first visit” value is on record as “had not noticed any obvious benefit”; the “benefit for migraine, subsequent treatment rounds” value is on record as “reduced the pain somewhat, but had not reduced the frequency or duration”. Also, in series [1], the “frequency of headaches with throbbing, light and sound sensitivity” value is given as “once or twice per week”; the “migraine frequency on treatment” value was 2 to 3 days/week.
